From US20230329236A1, “HERBICIDAL PYRIMIDINE DERIVATIVES” (MoA Technology Limited, priority 2020, published 2023)

Experiments:
Conditions in all cases: 336 h, Table 3, post-emergence, 14±1 days post application
[1] = test system: Lolium multiflorum (LOLMU); test: Post-emergence glasshouse test, visual injury, LOLMU; type: in vivo
Procedure, shortened: (§1)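 In this glasshouse test, sandy-loam-grown plants at BBCH 12-14 received a foliar spray of compound in 0.5% Tween 20 acetone/water (50:50) at rates expressed in g/ha. Injury was rated visually against untreated plots two weeks (14±1 d) later.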

[2] = test system: Echinochloa crus-gaffi (ECHCG); test: Post-emergence glasshouse test, visual injury, ECHCG; type: in vivo, Echinochloa crus-galli
Procedure, shortened: as §1

[3] = test system: Veronica persica (VERPE); test: Post-emergence glasshouse test, visual injury, VERPE; type: in vivo
Procedure, shortened: as §1

[4] = test system: Amaranthus retroflexus (AMARE); test: Post-emergence glasshouse test, visual injury, AMARE; type: in vivo
Procedure, shortened: as §1

Structure (SMILES)	pest or weed control at 500 g/ha [1] [%]	pest or weed control at 500 g/ha [2] [%]	pest or weed control at 500 g/ha [3] [%]	pest or weed control at 500 g/ha [4] [%]	also measured
Cc1cc(-c2cnc(NCc3ccc4c(c3)OCO4)nc2C(C)(C)C)on1 [Compound 54]	5	40	99	40	–
Cc1cc(-c2cnc(NCc3cccc(C#N)c3)nc2C(C)C)on1 [Compound 97]	–	–	–	–	pest or weed control at 62 g/ha ([1]; 62 g/ha): 20%; pest or weed control at 62 g/ha ([2]; 62 g/ha): 70%; pest or weed control at 62 g/ha ([3]; 62 g/ha): 70%; pest or weed control at 62 g/ha ([4]; 62 g/ha): 50%
C=COCCCNc1ncc(-c2cc(C)no2)c(C(C)(C)C)n1 [Compound 33]	0	70	0	80	–
Cc1cc(-c2cnc(N3CCCCC3)nc2C(C)(C)C)on1 [Compound 48]	70	10	0	20	–
Cc1cc(-c2cnc(N3CCCC(O)C3)nc2C2CC2)on1 (stereo not shown) [Compound 57]	0	50	0	70	–
C=COCCCNc1ncc(-c2cc(C)no2)c(C(C)C)n1 [Compound 35]	0	60	98	0	–
COc1ccc(CCNc2ncc(-c3cc(C)no3)c(C(C)C)n2)cc1OC [Compound 34]	30	80	100	70	–
Cc1cc(-c2cnc(N3CCN(c4ncccn4)CC3)nc2C(C)(C)C)on1 [Compound 61]	0	0	0	60	–
COCCCNc1ncc(-c2cc(C)no2)c(C(C)C)n1 [Compound 32]	0	100	90	90	–
COCCNc1ncc(-c2cc(C)no2)c(-c2ccc(C)o2)n1 [Compound 65]	0	30	0	60	–
Cc1cc(-c2cnc(N3CCCCC3)nc2C(C)C)on1 [Compound 56]	10	0	0	70	–
Cc1cc(-c2cnc(NCc3ccccn3)nc2C2CC2)on1 [Compound 67]	20	40	50	60	–
Cc1cc(-c2cnc(NCc3cccc(F)c3)nc2C(C)C)on1 [Compound 17]	–	–	–	–	pest or weed control at 1000 g/ha ([1]; 1000 g/ha): 0%; pest or weed control at 1000 g/ha ([2]; 1000 g/ha): 80%; pest or weed control at 1000 g/ha ([3]; 1000 g/ha): 100%; pest or weed control at 1000 g/ha ([4]; 1000 g/ha): 100%
